# Reference: patent US20240207213A1, “METHODS AND COMPOSITIONS FOR TREATING DISORDERS WITH ORAL SYSTEMICALLY BIOAVAILABLE BUTYRATE CONJUGATES” (THE UNIVERSITY OF CHICAGO, priority 2021, published 2024)
# Entries after “also recorded” stand apart in the source; their conditions may differ. Read-outs that look alike come from different tables or passages of the source.
# How the values were obtained:
# [1] = Biodistribution of butyrate after oral gavage (LC-MS/MS quantification in plasma and organs); type: in vivo, C57BL/6J mice; conditions: for butyrate level in the liver / butyrate level in the mesenteric LNs: 3 hr and 6 hr post oral administration; for butyrate level in the spleen: 3 hr post oral administration
# Method: The specific-pathogen-free (SPF) female C57BL/6J mice were orally administered with 50.4 mg NaBut, 80 mg SerBut, 85.6 mg ThrBut (all containing equivalent 40 mg butyrate), or PBS. At 0.5 hr or 3 hr post administration, blood was collected by cheek bleeding. At 3 hr or 6 hr post administration, the mice were anesthetized under isoflurane and transcardially perfused with at least 30 ml phosphate-buffered saline (PBS) containing 1 mM EDTA. Organs including liver, mesenteric lymph nodes (mLNs), brain, spinal cord, and spleen were collected and frozen in dry ice immediately, and then transfer to −80° C. until further processing.
# 1:1 v/v acetonitrile (ACN) to water was used to extract butyrate from the plasma or organs. Plasma was mixed 1:1 with ACN/water solution, and then centrifuged to remove the denatured proteins. Organs were weighed and transferred to Lysing Matrix D tubes, and added with ACN/water 1:1 v/v solution followed by sample lysing using FastPrep-24 5G homogenizer (MP Biomedicals). The samples were then centrifuged, and the supernatant were collected for the measuring of butyrate.
# Samples were prepared and derivatized as describe in the literature (5, 6). 3-nitrophenylhydrazine (NPH) stock solution was prepared at 0.02 M in water:acetonitrile 1:1 v/v. EDC stock solution (with 1% pyridine added) was prepared at 0.25 M in water:acetonitrile 1:1 v/v. 4-methylvaleric acid was added as internal standard. Samples were mixed with NPH stock and EDC stock at 1:1:1 ratio by volume. The mixture was heated by heating block at 60° C. for 30 min. Samples were then filtered through […] and transferred into HPLC vials and stored at 4° C. before analysis.
# The Agilent 6460 Triple Quad MS-MS was used to detect the derivatized butyrate.
# Both derivatized butyrate-NPH and 4-methylvaleric-NPH were detected in negative mode. Column: ThermoScientific C18 4.6×50 mm, […], at room temperature. Mobile phase A: water with 0.1% v/v formic acid. Mobile phase B: acetonitrile with 0.1% v/v formic acid. Injection volume: 5.0 μL. Flow rate: 0.5 mL/min. Gradient of solvent: 15% mobile phase B at 0.0 min; 100% mobile phase B at 3.5 min; 100% mobile phase B at 6.0 min; 15% mobile phase B at 6.5 min. The MS conditions were optimized on pure butyrate-NPH or 4-methylvaleric-NPH at 1 mM. The fragment voltage was 135 V and collision energy was set to 18 V. Multiple reaction monitoring (MRM) of 222→137 was assigned to butyrate, and MRM of 250→137 was assigned to 4-methylvaleric acid as internal standard. The ratio between MRM of butyrate and 4-methylvaleric acid was used to quantify the concentration of butyrate. The final butyrate content is each organ is normalized by the organ weight.
# [2] = Water solubility (statement); type: physicochemical
# [3] = system: experimental autoimmune encephalomyelitis (EAE); type: in vivo, C57BL/6 mice; conditions: for Th17 cells (RORγt+% of CD4+ T cells) in the spinal cord: day 20, compared to the PBS group
# Text: C57BL/6 female mice (8 weeks old) were purchased from Charles River Laboratories and housed in the animal facility at the University of Chicago for 2 weeks before immunization. All experiments were approved by the Institutional Animal Care and Use Committee of the University of Chicago
# Female C57BL/6 mice at the age of week 10 were subcutaneously immunized at the dorsal flanks with an emulsion of MOG35-55 in complete Freund's adjuvant (MOG35-55/CFA Emulsion, Hooke Laboratories) on day 0, followed by i.p. administration of pertussis toxin in PBS on both day 0 and day 1. The mice were treated with PBS or serine butyrate (0.6 mg/g per dose) twice daily from day 2 to day 19. Another group of mice were treated with PBS once (in the morning) and serine butyrate (0.6 mg/g) once (in the afternoon) daily. The development of EAE was monitored and clinical scores were measured daily from day 7 to day 20. The clinical scores were determined based on the Hooke Laboratories scoring criteria (found online at hookelabs.com/services/cro/eae/MouseEAEscoring.html). In brief, EAE clinical scores ranged from a score of 0, corresponding to no obvious changes in motor function compared to non-immunized mice, to a score of 4, corresponding to limp tail and minimal or no movement of hind and/or fore limbs. On day 20, mice from the twice daily PBS or serine butyrate gavage groups were sacrificed. Their blood was collected through cardiac puncture, and spleen, spinal cord, mesenteric lymph nodes (LNs), central nervous system(CNS)-draining LNs (dLNs, including cervical LNs and iliac LNs) were harvested for the immunostaining followed by the flow cytometry analysis. The major cytokines from the plasma and spinal cord after homogenization were analyzed by the LegendPlex (BioLegend).
# [4] = 0.5 hr and 3 hr after oral administration (both time points)
# [5] = oral, compared to mice treated with NaBut and ThrBut (PBS and sodium butyrate)
# [6] = day 20, flow cytometry, twice daily vs PBS
# [7] = day 20, flow cytometry, twice daily vs PBS, listed as Serine butyrate
# [8] = day 20, flow cytometry, twice daily vs PBS, listed as serine butyrate
compound,measurement,setting,value
"CCCC(=O)OC(C)[C@H](N)C(=O)O (stereo in doubt) [ThrBut, O-butyryl L-threonine]",butyrate level in the plasma,[1]; [4],did not show high level of butyrate
same,butyrate level in the liver,[1],high level of butyrate
same,butyrate level in the mesenteric LNs,[1],high level of butyrate; also recorded: higher accumulation
same,butyrate level in the spleen,[1],higher level of butyrate; also recorded: higher accumulation
same,water solubility,[2],water soluble
"CCCC(=O)[O-].[Na+] [NaBut, sodium butyrate, reference compound]",butyrate level in the plasma,[1]; [4],did not show high level of butyrate
"CCCC(=O)OC[C@H](N)C(=O)O [SerBut, O-butyryl L-serine]",butyrate level in the plasma,"[1]; 0.5 hr after oral administration, equivalent 40 mg butyrate",dramatically increased
same,butyrate level in the plasma,"[1]; 3 hr after oral administration, equivalent 40 mg butyrate",dropped significantly
same,butyrate level in the liver,[1],high level of butyrate
same,butyrate level in the mesenteric LNs,[1],high level of butyrate; also recorded: higher accumulation
same,butyrate level in the spleen,[1],higher level of butyrate; also recorded: higher accumulation
same,butyrate level in brain,[1]; [5],significantly enhanced; also recorded: significantly increased
same,butyrate level in spinal cord,[1]; [5],significantly enhanced; also recorded: significantly increased
same,severity of EAE disease development (clinical score),"[3]; 0.6 mg/g per dose oral, twice daily day 2-19, vs PBS, listed as Serine butyrate",attenuates
same,dose regimen comparison in EAE: twice daily vs single daily dose,[3]; 0.6 mg/g twice daily vs once daily,performed better than a single dose
same,body weight loss,[3]; EAE mice treated orally,did not observe a significant body weight loss
same,MHCII expression (gMFI) on dendritic cells and macrophages in the mesenteric LNs,"[3]; day 20, compared to PBS-treated mice",significantly lower
same,Th17 cells (RORγt+% of CD4+ T cells) in the spinal cord,[3]; listed as Serine butyrate,reduced
same,Th17 cells (RORγt+% of CD4+ T cells) in the spinal cord,[3]; listed as serine butyrate,less Th17 cells
same,CD80+% and CD86+% of CD11c hi dendritic cells in the spinal cord,[3]; [6],significant reduction
same,"cell surface MHCII expression in CD11c hi dendritic cells and CD11b+CD11c- monocytes, spinal cord",[3]; [6],similarly marked reduction
same,MHCII positive dendritic cells and macrophages in the mesenteric LNs,[3]; [7],suppresses
same,"immune cell infiltration into the spinal cord (CD11b+, CD11b+CD11c-, F4/80+CD11b+ cells)",[3]; [7],inhibits
same,MHCII positive dendritic cells and macrophages in the mesenteric LNs,[3]; [8],significant reduction
same,"immune cell infiltration into the spinal cord (CD11b+, CD11b+CD11c-, F4/80+CD11b+ cells)",[3]; [8],significantly suppressed
same,IFNγ in the spinal cord,"[3]; day 20, homogenate supernatant normalized by total protein",minimal IFNγ
same,Foxp3+CD8+ Tregs in the mesenteric LNs,"[3]; day 20, twice daily vs PBS",significant induction
same,regulatory T cells in the spleen (Foxp3+ or Foxp3+CD25+ of CD4+ T cells),"[3]; day 20, twice daily vs PBS",significantly increased
same,EAE clinical score of the majority of mice,"[3]; twice daily 0.6 mg/g, score scale 0-4",below 1.0
same,water solubility,[2],water soluble
"CCCC(=O)Oc1ccc(C[C@H](N)C(=O)O)cc1 [TyrBut, O-butyryl L-tyrosine]",water solubility,[2],not highly soluble
